Data on one substance can be found in patent US20220389420A1, “AGENTS FOR THE TREATMENT OF PATIENTS WITH NSCLC AND METHODS TO PREDICT RESPONSE” (CENTRE NATIONAL DE LA RECHERCHE SCIENTIFIQUE, priority 2016, published 2022).

In one data set the test system is H1299 cells. Nature of the data set: Cisplatin resistance validation in H1299 cells. As to conditions: H1299, homozygous partial deletion of the TP53 gene. The format is cell-based. An excerpt:
(A) Kill curve of H1299 cells (with a homozygous partial deletion of the TP53 gene) overexpressing miR-24-3p or a miRNA control and exposed to increasing dose of cisplatin.
(§1) (B) Validation of the effects of cisplatin in two LUAD cell lines, H1299 (with a homozygous partial deletion of the TP53 gene) and H1975 (homozygous for the c.818G<A mutation of the TP53 gene).
(§2) Transfection. Pre-miR-24-3p, and control miRNA (miR-Neg #1) were purchased from Life technologies. For miR-24-3p knockdown experiments, LNA anti-miR-24-3p and LNA negative control were ordered from Exiqon. siRNA directed against BIM, PUMA, PNPO and PDXK were purchased from Life technologies. A549 and H1299 cells were grown in 10% FCS in DMEM and transfected at 30 to 40% confluency in 6-12- or 96 well plates using Lipofectamin RNAi MAX™ (Life technologies) with pre-miRNA, siRNAs LNA inhibitors at a final concentration of 5 nM unless indicated.
Functional genetic screen validation for miR-24-3p. Data were confirmed independently on a distinct lung adenocarcinoma cell line (H1299). Specificity to cisplatin resistance was assessed using docetaxel and vinorelbine.

The subject of the next data set is human BIM 3′UTR. Nature of the data set: Luciferase assay, BIM 3′UTR psiCHECK-2 construct in HEK293 cells. It counts as cell-based. As to conditions: two days after co-transfection, versus pre-miR-Neg. The method, then: (§3) (B): Results of luciferase assays in HEK293 cells transfected with the indicated constructions and pre-miR-24-3p or control miRNA.
(§4) Cells were harvested two days after transfection and luciferase activity were analysed. All renilla luciferase activities were normalized with firefly luciferase activity. **p<0.01.
(§5) Luciferase assay. Molecular constructs were made in psiCHECK-2 (Promega) by cloning behind the Renilla luciferase in the XhoI and NotI restrictions sites, annealed oligonucleotides derived from BIM, PUMA 3′ UTR. HEK293 cells were plated into 96-well and cotransfected using lipofectamin 2000 (Invitrogen) with 0.2 μg of psiCHECK-2 plasmid construct and pre-miR-24-3p or control miRNA at different concentrations. 48 hours after transfection, Firefly and Renilla Luciferase activities were measured using the Dual-Glo Luciferase assay (Promega).

Data set [1] deals with A549 cells. As to the kind of experiment: Caspase 3 dependent apoptotic response induced by cisplatin (Western blot). To be noted: miRNA overexpression in A549 cells. It counts as cell-based.
Data set [2] concerns A549 cells. Nature of the data set: DNA damage response induced by cisplatin (nuclear foci, confocal microscopy). It counts as cell-based. To be noted: 7 h following cisplatin exposure, miRNA overexpression. How it is done:
A549 cells overexpressing miR-24-3p were exposed to cisplatin for 7 h and nuclear foci of (i) phosphorylated histone H2A.X at SER139 (y-HAX) and (ii) phosphorylated ATM at Ser1981 (p-ATM) were assessed by confocal microscopy.
(C): percentage of cells (n=3) exposed to cisplatin and containing more than five nuclear foci of y-HAX and phosphor-ATM, respectively after miR-24-3p overexpression.
Immunofluorescence analysis. A549 cells were grown on a Round Glass Coverslips Ø16 mm (thermo scientific) placed inside a 12 Multiwell Plate. Coverslips slides were washed in phosphate-buffered saline and fixed in 4% paraformaldehyde for 15 min, cells were then permeated using 0.1% Triton X-102 (Agilent Technologies) for 10 min. and blocked with PBS solution containing BSA (3%) for 30 min. Incubation with primary antibodies was performed in a blocking solution BSA (1%) at 37° C. for 1 h. After three washes with PBS, cells were incubated with secondary antibodies. Forty five min later, Coverslips slides were fixed on microscope slides using ProLong Gold Antifade Reagent with DAPI (Invitrogen). Fluorescence was viewed with an FV10i Olympus confocal scanning microscope.

The test system of data set [3] is A549 cells. Nature of the data set: Cisplatin sensitivity of A549 cells overexpressing miRNA (Annexin V/PI, ATP-based viability). The format is cell-based. The method, then: A549 cells were transfected with pre-miR-24-3p for 2 days and the transfected cells were then exposed to either cisplatin or vinorelbin.
(A): Annexin V/PI staining of A549 cells overexpressing miR-24-3p and exposed to 60 μM cisplatin for 24 h.
(B): Vinorelbin dose response analysis of A549 cells overexpressing miR-24-3p. An ATP-based assay was used to assess cell viability.
as §2
Annexin V assay. Annexin-V-FITC apoptosis detection kit (Life technologies) was used to detect apoptotic activity. […] Annexin-V-FITC binding was determined by flow cytometry (excitation wavelength of 488 nm; emission wavelength of 530 nm) using the FITC signal detector (FL1), and propidium iodide staining was detected by the phycoerythrin emission signal detector (FL2).

Another data set has as its system PUMA 3′UTR. As to the kind of experiment: Luciferase assay, PUMA 3′UTR psiCHECK-2 construct in HEK293 cells. It counts as cell-based, human. To be noted: two days after co-transfection, versus pre-miR-Neg. The method, then:
as §3, §4, §5

Data set [4] concerns A549 cells. Nature of the data set: Functional genetic screen for miRNAs inducing cisplatin resistance. To be noted: pre-miR library transfected two days, then cisplatin 60 μM three days, Cell Titer Glow assay. It counts as cell-based. How it is done: A549 cells were transfected with the pre-miR library for two days and the transfected cells were then exposed to cisplatin at 60 μM for three days. Cell viability was measured in single well using Cell Titer Glow assay.
(A): Plot of normalized viability versus −log10 FDR-adjusted P-value for all miRNAs overexpressed in A549 cells. Vertical dashed lines denote the selected normalized viability cutoff, while the Horizontal line denotes the 0.01 selected FDR-adjusted P-value cutoff. Each dot represents a miRNA. Dots surrounded in the upper right quadrant represent miRNAs associated with cisplatin resistance at the chosen cutoffs. The standardized residual viability of the miR-24-3p miRNA was estimated at 4.9512.
Functional genetic screen. Mimics were transfected in authenticated A549 lung adenocarcinoma cell line in 96 well plate format. 48 h following transfection, cells were exposed to cisplatin at 60 μM (2 times DL50; DL50 corresponding to the drug concentration lethal to 50% of the tumor cells) for three days. Viability was assessed using the cell titer glo assay (Promega). […]
miRNA candidate selection. miRNA candidates were selected for further analysis based on statistical significance (p<0.01) and degree of resistance induced (assessed by viability after drug exposure, normalized viability above 3).
On the technique in general: ATP-based viability assays read luminescence as a measure of living cells.

The test system of the next data set is H1975 cells. Nature of the data set: Cisplatin resistance validation in H1975 cells. It counts as cell-based. As to conditions: H1975, homozygous c.818G>A mutation of the TP53 gene.
Text: as §1

“pre-miR-24-3p: miRNA mimic purchased from Life technologies, used to overexpress miR-24-3p (UGGCUCAGUUCAGCAGGAACAG, SEQ ID No:1) (listed as RNA, chemistry not given here)”: the cisplatin resistance entry in the data set on H1299 cells is reported as “contributed to cisplatin resistance independently of p53”. Besides, in the data set on human BIM 3′UTR, the “direct targeting of BIM 3′UTR (renilla luciferase normalized with firefly)” value is given as “direct targets”. The “caspase 3 dependent apoptotic response induced by cisplatin” value with A549 cells [1] is given as “strongly inhibits”. In addition, in the data set with A549 cells [2], the ATM signaling entry was “decreased ATM signaling” and the “DNA damage (phospho-yH2AX nuclear foci)” value is listed as “less DNA damage”. For the same substance, the “resistance to platinum based-compounds (cisplatin, carboplatin, oxaliplatin)” value with A549 cells [3] (A549 cells overexpressing the miRNA, comparison with vinorelbin treatment) is listed as “strongly resistant”. Further, in the data set with A549 cells [3] (A549 cells transfected with pre-miR, versus cells not overexpressing miR-24-3p), the response to cisplatin entry is “the response to cisplatin was lesser”. In addition, the “direct targeting of PUMA 3′UTR (renilla luciferase normalized with firefly)” value with PUMA 3′UTR was “direct targets”. The standardized residual viability in the data set on A549 cells [4] turned out to be 4.9512. The cisplatin resistance result in the data set with H1975 cells is given as “contributed to cisplatin resistance independently of p53”.
